# Laboratory results taken from patent US10105437B2, “Epitopes related to coeliac disease” (BTG International Limited, priority 2004, dated 2018).
# Where no end group is shown, it is not given here.
# System: PBMC from HLA-DQ2+ coeliac subjects
# Experiment: Interferon gamma ELISPOT, third round wheat peptide library
# Assay type: cell-based, human
# Details: following deamidation by tTG; 14 subjects; wheat challenge
# Procedure: (§1) IFNγ ELISpot assays (Mabtech, Sweden) were performed in 96-well plates (MAIP S-45, Millipore) in which each well contained 25 mcl of peptide solution and 100 mcl of PBMC (2-8×10^5/well) in RPMI containing 10% heat inactivated human AB serum. After development and drying, IFNγ ELISpot plates were assessed using the MAIP automated ELISpot plate counter. Data was then analysed according to a novel algorithm (Expectation Maximization: EM) to define and quantify interferon-gamma responses to 9mer sequences contained within the peptide library (see FIG. 3 and below). 9mer peptides were then rationalised according to an algorithm that assumes redundancy in T-cell recognition, the “IterativeCluster” algorithm (see FIG. 4 and below), by allowing groups of amino acids with similar chemical properties at any one position in the 9mer, or for glutamate to replace glutamine at any position (assuming deamidation may have occurred).
# The third round peptide library consisted of 74 peptides based upon structurally distinct sequences in the second round library found to induce at least 10% of the maximal response to any peptide in any subject. These peptides corresponded to wild-type (non-deamidated) sequences virtually identical to those used in the second round library. The distinct feature of this library was that it consisted of peptides with purity verified by HPLC as >80%, and with sequences confirmed by mass spectroscopy.
# Interferon gamma ELSIPOT responses to the 3rd round library peptides following deamidation by tTG were compared in 14 subjects. Once again, sequences including the PQPQLPY motif (SEQ ID NO: 1937) were “dominant” in 9/14 subjects. However PFPQPQQPFPW (SEQ ID NO: 1894) stimulated >70% of maximal response in 1/14 subjects, PFPQQPQQPFPQ (SEQ ID NO: 1895) in 1/14, PQPFLPQLPYPQP (SEQ ID NO: 1896) in 1/14, QPFPQPQQPQQP (SEQ ID NO: 1897) in 4/14 (including 3 subjects in whom PQPQLPY peptides (SEQ ID NO: 1937) were not potent epitopes) SGQGVSQSQQQSQQQ (SEQ ID NO: 1898) in 2/14 (including one in which PQPQLPY peptides (SEQ ID NO: 1937) were not potent), QYEVIRSLVLRTLPNM (SEQ ID NO: 1899) and GLARSQMLQQSICHVG (SEQ ID NO: 1900) each in one (the same) subject in whom PQPQLPY peptides (SEQ ID NO: 1937) were not potent epitopes, RTTTSVPFGVGTGVGA (SEQ ID NO: 1901) in 1/14 subjects and AIHTVIHSIIMQQEQQ (SEQ ID NO: 1902) in 1/14 subjects.
row,Substance,subjects in whom peptide stimulated >70% of maximal response (dominant)
1,AIHTVIHSIIMQQEQQ (Description of Artificial Sequence: Synthetic gluten peptide),1/14
2,PFPQQPQQPFPQ (Description of Artificial Sequence: Synthetic gluten peptide),1/14
3,RTTTSVPFGVGTGVGA (Description of Artificial Sequence: Synthetic gluten peptide),1/14
4,PQPFLPQLPYPQP (Description of Artificial Sequence: Synthetic gluten peptide),1/14
5,QYEVIRSLVLRTLPNM (Description of Artificial Sequence: Synthetic gluten peptide),one
6,SGQGVSQSQQQSQQQ (Description of Artificial Sequence: Synthetic gluten peptide),2/14
7,PFPQPQQPFPW (Description of Artificial Sequence: Synthetic gluten peptide),1/14
8,QPFPQPQQPQQP (Description of Artificial Sequence: Synthetic gluten peptide),4/14
9,GLARSQMLQQSICHVG (Description of Artificial Sequence: Synthetic gluten peptide),one

# System: PBMC from HLA-DQ2+ coeliac subjects
# Experiment: Interferon gamma ELISPOT, secalin 20mer first round library after rye challenge
# Assay type: cell-based, human
# Details: 20mers pre-treated with tTG; day 6 PBMC; 14 subjects
# Procedure: Peptides were initially dissolved in aqueous acetonitrile (50%). Peptides in aqueous acetonitrile were transferred to sterile 96-well plates and diluted in sterile PBS with 1 mM calcium (250 mcg/ml) and then incubated with tTG (25 mcg/ml) (Sigma T5398) for 6 h 37° C. and then stored frozen (−20° C.) until use.
# as §1
# Secalin and hordein 20mer first round peptide libraries were assessed 3 days after completing rye (bread, 100 g/d for 3 days) or barley (boiled, 100 g/d for 3 days) challenge (“day 6” PBMC interferon gamma ELISPOT responses). Although iterative analysis using 2nd and 3rd round peptide libraries to define epitopes has not yet been performed, the 20mers pre-treated with tTG found to induce “potent” responses shared substantial structural similarity to the bioactive peptides identified after wheat challenge. […] The dominant (>70% maximal response) 20mer after rye challenge was usually […] (SEQ ID NO: 1769) (8/14 subjects), or occasionally […] (SEQ ID NO: 1770) (4/14), […] (SEQ ID NO: 1771) (1/14), […] (SEQ ID NO: 1772) (1/14) and/or […] (SEQ ID NO: 1773) (1/14). Additional peptides noted for greater than 40% maximal response in at least 1 subject include: […]
row,Substance,subjects in whom 20mer was dominant (>70% maximal response) after rye challenge
1,PQQLFPLPQQPFPQPQQPFP (Description of Artificial Sequence: Synthetic gluten peptide) [rye secalin 20mer],8/14
2,QEQREGVQILLPQSHQQLVG (Description of Artificial Sequence: Synthetic gluten peptide) [rye secalin 20mer],1/14

# Same assay, conditions: after rye challenge; 14 subjects
Substance,number of subjects with > 70% maximal response,subjects with greater than 40% maximal response
PQQPFPQQPEQIIPQQPQQP (Description of Artificial Sequence: Synthetic gluten peptide) [rye secalin 20mer],3,5/14
QQLPLQPQQPFPQPQQPIPQ (Description of Artificial Sequence: Synthetic gluten peptide) [rye secalin 20mer],2,6/14
NMQVGPSGQVEWPQQQPLPQ (Description of Artificial Sequence: Synthetic gluten peptide) [rye secalin 20mer],1,2/14
QTQQSIPQPQQPFPQPQQPF (Description of Artificial Sequence: Synthetic gluten peptide) [rye secalin 20mer],1,3/14
SIPQPQQPFPQPQQPFPQSQ (Description of Artificial Sequence: Synthetic gluten peptide) [rye secalin 20mer],1,4/14
PQQPQRPFAQQPEQIISQQP (Description of Artificial Sequence: Synthetic gluten peptide) [rye secalin 20mer],1,3/14
QQPFLLQPQQPFSQPQQPFL (Description of Artificial Sequence: Synthetic gluten peptide) [rye secalin 20mer],1,1/14

# System: PBMC from HLA DQ8+DQ2- CD subjects
# Experiment: Interferon gamma ELISPOT, second round gliadin library in HLA DQ8 subjects
# Assay type: cell-based, human
# Details: not given
# Excerpt: PBMC from two subjects initially challenged were used to screen the first round “Melbourne” wheat gliadin 20mer library. The 20mer sequences identified using PBMC from these two HLA DQ8 CD subjects were dissected further by screening, in five HLA DQ8+DQ2− CD subjects including the two original subjects, a second round library based on reactive 20mers in the 1st round library. The 2nd round library consisted of screening grade overlapping 16mers, and 13mers predicted to correspond to tTG-mediated deamidation products of epitopes with the potential for deamidation of glutamine at position 1 and/or position 9 (consistent with the HLA DQ8 peptide binding motif). In addition, the 1400 glutenin (HMW and LMW) tTG-pretreated 20mers in the “Melbourne” wheat gluten library were also screened in these five subjects.
row,Substance,effect of deamidation of specific glutamine residues on ELISPOT responses
1,"(QE)QPFPLQP(QE): HLA DQ8 gliadin epitope motif, Q or E at marked positions (XQPFPLQPX; not fully specified; printed as (QE)QPFPLQP(QE))",enhanced or permissive to specific glutamine residues being deamidated
2,"(QE)QPIPVQP(QE): HLA DQ8 gliadin epitope motif, Q or E at marked positions (XQPIPVQPX; not fully specified; printed as (QE)QPIPVQP(QE))",enhanced or permissive to specific glutamine residues being deamidated
3,"(QE)GSFQPSQ(QE): previously published HLA DQ8 epitope, van der Wal 1998 (XGSFQPSQX; not fully specified; printed as (QE)GSFQPSQ(QE)) [reference compound]",enhanced or permissive to specific glutamine residues being deamidated
4,"(QE)QPTPIQP(QE): HLA DQ8 gliadin epitope motif, Q or E at marked positions (XQPTPIQPX; not fully specified; printed as (QE)QPTPIQP(QE))",enhanced or permissive to specific glutamine residues being deamidated
5,"(QE)QPFP(QE)QP(QE): HLA DQ8 gliadin epitope motif, Q or E at marked positions (XQPFPXQPX; not fully specified; printed as (QE)QPFP(QE)QP(QE))",enhanced or permissive to specific glutamine residues being deamidated
6,"(QE)QPQQPFP(QE): HLA DQ8 gliadin epitope motif, Q or E at marked positions (XQPQQPFPX; not fully specified; printed as (QE)QPQQPFP(QE))",enhanced or permissive to specific glutamine residues being deamidated

# Same assay, conditions: VYIPPYCTIAPFGIFG and/or AMCNVYIPPYCAMAPF; five subjects
row,Substance,subjects with dominant responses to one or both of these peptides
1,"AMCNVYIPPYCAMAPF (Description of Artificial Sequence: Synthetic gluten peptide) [gliadin 16mer, HLA DQ8]",4/5
2,"VYIPPYCTIAPFGIFG (Description of Artificial Sequence: Synthetic gluten peptide) [gliadin 16mer, HLA DQ8]",4/5

# Same assay, conditions: five subjects; wheat gluten challenge
row,Substance,subjects with >70% response to maximal gliadin 16mer (dominant)
1,"AMCNVYIPPYCAMAPF (Description of Artificial Sequence: Synthetic gluten peptide) [gliadin 16mer, HLA DQ8]",3/5
2,"VYIPPYCTIAPFGIFG (Description of Artificial Sequence: Synthetic gluten peptide) [gliadin 16mer, HLA DQ8]",3/5
